US6989270B1, “Using polyamide nucleic acid oligomers to engender a biological response” (Mayo Foundation for Medical Education and Research, priority 1997, dated 2006)

What was measured:
[1] = system: neurotensin receptor-1 (NTR1); test: Hot plate test of NT-mediated anti-nociception in PNA-treated rats; format: in vivo, rat
Protocol: Under an Institutional Animal Care and Use Committee approved protocol and under sterile conditions male Sprague-Dawley rats (180-200 g) were stereotaxically implanted with stainless steel guide cannulae (26 gauge) into the PAG under sodium pentobarbital anesthesia (50 mg/kg, i.p.) as described in detail elsewhere (Jensen T. S. and Yaksh T. L., Brain Res. 372:301-312 (1986) and Al-Rodhan N.R.F., Brain Res. 557:227-235 (1991)). The coordinates used for PAG cannulations are -5.6 mm posterior from bregma, 1.0 mm lateral from bregma, and 5.5 mm down from the dura. The guide cannula was pre-measured to be 5.5 mm (Plastics One, Roanoke, Va.) and the internal cannula was ordered to fit below the pedestal with a 2.0 mm projection. The guide cannula was then fixed to the skull using a stainless steel screw (⅛ inch) and cranioplastic cement. A stainless steel stilette was then placed in each guide to keep it patent and free of debris. Immediately after surgery, the animals were allowed to recover before returning them to an individual housing cage. All injections began 5-7 days after surgery.
NTR1-PNA oligomers were injected, using a Hamilton digital syringe, into the PAG through the internal cannula, which extended 2 mm below the guide tip. The internal cannula was connected with a length of polyethylene tubing (PE-20) filled with saline solution. A small air bubble was introduced into the tubing to separate the saline from a solution containing 1.3 nmol of NTR1-PNA oligomers in artificial cerebral-spinal fluid (ACSF). The volume of the solution containing the NTR1-PNA oligomers was about 1.0 μl. The bubble was used to confirm the movement of this solution through the polyethylene tubing.
NTR1-PNA oligomers were injected into the PAG of each rat three times, on days -4, -2, and 0. Controls included rats receiving no injections, rats receiving injections of ACSF only, and rats receiving PNA oligomers having sequence specificity for an unrelated polypeptide, the mu-1 morphine receptor (MU1R). The sequence of MU1R-PNA is 5′-[…]-3′ (SEQ ID NO: 2).
The injection of NT in the PAG of rats produces a potent anti-nociceptive response as well as hypothermia. These responses are mediated by specific NT receptors and are not inhibited by naloxone. A very sensitive and reliable hot plate test was used to measure the anti-nociceptive effects of NT (Al-Rodhan N.R.F., Brain Res. 557:227-235 (1991)).
NTR1-PNA, MU1R-PNA, and ACSF treated as well as untreated rats were analyzed using the hot plate test for NT. One day after the last treatment, each rat was analyzed as follows. Fifteen minutes prior to testing, a pre-drug latency measurement was made by placing the rat on a hot plate maintained at a temperature of 52±0.15° C. and recording the time elapsed before the rat licked either of its hindpaws. In addition, the temperature of the rat was taken using a thermister probe inserted 3 cm in the rectum to determine the pre-drug body temperature (BT). After making these measurement, an appropriate dose of NT (18 nmol) at a volume of about 0.5 ul was administered into the PAG as described above. Thirty minutes after administering NT, the rat was again placed on a hot plate maintained at a temperature of 52±0.15° C. and the latency between the time the rat was placed on the surface and the time it licked either of its hindpaws was measured. […] Hot plate tests were scored as the percent of maximum possible effect (% MPE) and calculated using the following equation: % MPE=[(post-drug latency−pre-drug latency)/(cut-off−pre-drug latency)]×100; where the cut-off is 30 seconds. […] This average for untreated control rats was used to set the baseline MPE value to 100. Immediately after the 30 second hot plate test, BT was taken to measure NT-induced hypothermia using a thermister probe inserted 3 cm in the rectum. […] All test situations were compared to these baseline values derived from NT responsive untreated controls. […]

[2] = system: neurotensin receptor-1 (NTR1); test: NT-induced hypothermia (rectal body temperature) in PNA-treated rats; format: in vivo, rat; settings: for body temperature change in response to NT: NT 18 nmol 24 hours later
Protocol: NTR1-PNA, MU1R-PNA, and ACSF treated as well as untreated rats were analyzed using the hot plate test for NT. One day after the last treatment, each rat was analyzed as follows. Fifteen minutes prior to testing, a pre-drug latency measurement was made by placing the rat on a hot plate maintained at a temperature of 52±0.15° C. and recording the time elapsed before the rat licked either of its hindpaws. In addition, the temperature of the rat was taken using a thermister probe inserted 3 cm in the rectum to determine the pre-drug body temperature (BT). After making these measurement, an appropriate dose of NT (18 nmol) at a volume of about 0.5 ul was administered into the PAG as described above. Thirty minutes after administering NT, the rat was again placed on a hot plate maintained at a temperature of 52±0.15° C. and the latency between the time the rat was placed on the surface and the time it licked either of its hindpaws was measured. […] Hot plate tests were scored as the percent of maximum possible effect (% MPE) and calculated using the following equation: % MPE=[(post-drug latency−pre-drug latency)/(cut-off−pre-drug latency)]×100; where the cut-off is 30 seconds. […] This average for untreated control rats was used to set the baseline MPE value to 100. Immediately after the 30 second hot plate test, BT was taken to measure NT-induced hypothermia using a thermister probe inserted 3 cm in the rectum. […] All test situations were compared to these baseline values derived from NT responsive untreated controls.
(§1) AS-NTR1-PNA, mismatch-AS-NTR1-PNA, and MU1R-PNA were injected intraperitoneally (10 mg/kg) independently, into separate groups of male Sprague-Dawley rats (Harlan, Prattville, Ala.). The sense-NTR1-PNA oligomer, however, was microinjected directly into the periaqueductal gray (PAG; 5 μg), the major area in the brain involved with perception of pain (nociception). […] Thirty minutes after receiving NT, animals were scored for anti-nociception (hot plate at 52° C.) and hypothermia (rectal probe). Again, anti-nociception scores were calculated as percent of maximum possible effect (% MPE) with the following equation: % MPE=[(post-drug latency time minus pre-drug latency time)/(cut-off time minus pre-drug latency time)]×100; where the cut-off time (i.e., the time when the animal was removed from the device) was 30 seconds for a hot plate test and 12 seconds for a tail flick test. Statistical analysis was done using the rank sum test.

mu-1 receptor (MU1R) = test: Tail flick test of MOR-mediated anti-nociception in PNA-treated rats; format: in vivo, rat
Protocol: The injection of MOR into rats produces a potent anti-nociceptive response. This response is mediated by specific MOR receptors and is inhibited by naloxone. A very sensitive and reliable tail flick test was devised and used to measure the anti-nociceptive effects of MOR (D'Amour F. E. and Smith D. L, J. Pharm. Exp. Therap. 72:74-79 (1941)).
MU1R-PNA, NTR1-PNA, and ACSF treated as well as untreated rats were analyzed using the MOR-specific tail flick test. One day after the last treatment, each rat was analyzed as follows. Thirty minutes prior to testing, a pre-drug latency measurement was made by placing the tail of the restrained rat in oil maintained at a temperature of 60° C. and recording the time elapsed before the rat flicked its tail. After making this measurement, an appropriate dose of MOR (5 mg/kg of body weight) at a volume of about 200 μl was injected i.p. Thirty minutes after administering MOR, the restrained rat's tail was again placed in the oil maintained at 60° C. and the latency between the time the tail was placed in the oil and the time the rat flicked its tail was measured. […] Tail flick tests were scored as the percent of MPE and calculated using the following equation: % MPE=[(post-drug latency−pre-drug latency)/(cut-off−pre-drug latency)]×100; where the cut-off is 12 seconds. […] This average for untreated control rats was used to set the baseline A MPE value to 100. All test situations were compared to this baseline response value derived from MOR responsive untreated controls. To test the significance, data were analyzed using the Student's t-test with p<0.05 being considered significant.
as §1

NTR1 mRNA = test: Quantitative RT-PCR of NTR1 mRNA relative to GAPDH; format: in vivo; settings: treated intracranially, 5 μg; at 8 hours
Protocol: (§2) Messenger RNA (mRNA) levels for NTR1, MU1R, and GAPDH were measured in control and PNA-treated animals. Briefly, total RNA was isolated from approximately 20 mg of tissue using the S.N.A.P. total RNA Isolation Kit (Invitrogen, Carlsbad, Calif.). Quantitative RT-PCR was performed on treated and control animals using GAPDH as an internal standard and PCR fragments of the human NTR and of a GAPDH deletion mutant as exogenous standards. First strand cDNA was synthesized from approximately 500 ng of total RNA using the cDNA Cycle Kit (Invitrogen, Carlsbad, Calif.). PCR was performed on a GeneAmp PCR System 9600 (Perkin Elmer, Norwalk, Conn.) using end-labeled primer and TAq DNA Polymerase (Gibco-BRL, Gaithersburg, Md.). Products were separated on a 5% acrylamide gel containing 7 M urea, and detected using a Storm860 Phosphoimager (Molecular Dynamics, Sunnyvale, Calif.). Data were analyzed using ImageQuant Software (Molecular Dynamics, Sunnyvale Calif.). To control for any diurnal mRNA level fluctuations that may occur, the PNA injection time was controlled such that the tissue harvest time was identical in each animal group.

MU1R mRNA = test: Quantitative RT-PCR of MU1R mRNA relative to GAPDH; format: in vivo; settings: treated intracranially, 5 μg
Protocol: as §2

[3] = system: plasma membrane serotonin transporter; test: Hyperactivity (activity chamber) after tranylcypromine challenge; format: in vivo, rat; settings: 5 mg/kg i.p., then 15 mg/kg TCP 48 hours later
Protocol: To test the ability of SERT-PNA oligomers to engender a biological response, e.g., a reduction of plasma membrane serotonin transporter expression, SERT-PNA oligomers were administered to rats with and without tranylcypromine (TCP), a MAO inhibitor.
A solution containing 5 mg/kg of SERT-PNA oligomers in saline was injected directly into the peritoneal cavity of male Sprague-Dawley rats (200-250 g). Each rat received a single injection on day zero and the volume injected was about 200 μl. Controls included rats receiving injections of saline only and injections of TCP only.
To monitor hyperactivity, an Opto-Varimex-Minor activity chamber (Columbus Instruments, Columbus, Ohio) was used. Briefly, this activity chamber records the number of times an animal disrupts an infrared beam while in a 42 cm by 42 cm chamber. Other signs of hyperactivity were noted by gross observation.

[4] = 10 mg/kg intraperitoneally, NT 18 nmol into PAG 24 hours later
[5] = PNA injected into PAG on days -4, -2, 0, NT 18 nmol into PAG

mismatch-AS-NTR1-PNA: PNA oligomer like AS-NTR1-PNA with a mismatch at every third base pair, 5′-TATGGCACAGAC-3′ (SEQ ID NO:12) (all peptide nucleic acid (PNA); further chemistry not fully specified)
anti-nociception score (hot plate) after NT [1, 4]: 60 % MPE | body temperature change in response to NT ([2]; 10 mg/kg intraperitoneally): −1.3 °C

MU1R-PNA: 14-mer antisense PNA oligomer to mu-1 receptor 5′ non-coding region, 5′-CAGCCTCTTCCTCT-3′ (SEQ ID NO: 2) (all peptide nucleic acid (PNA); further chemistry not fully specified)
anti-nociception score (hot plate) after NT [1, 4]: 82 % MPE | MPE (hot plate) response to NT challenge as percent of baseline response [1, 5]: indistinguishable from the baseline responses | BT (hypothermia) response to NT challenge as percent of baseline response [2, 5]: indistinguishable from the baseline responses | time until which MOR-mediated anti-nociception remained significantly reduced (mu-1 receptor (MU1R); PNA injected into PAG on days -4, -2, 0): day twelve | responsiveness to MOR challenge (tail flick) (mu-1 receptor (MU1R); one day after single i.p. injection of 3 mg/kg): unable to respond to MOR challenge

sense-NTR1-PNA: sense PNA oligomer for NTR1, complementary to AS-NTR1-PNA, 5′-GTTTGAGCAATG-3′ (SEQ ID NO:13) (all peptide nucleic acid (PNA); sense control PNA, further chemistry not fully specified)
anti-nociception score (hot plate) after NT [1, 4]: 5.4±5.4 % MPE | anti-nociception score (hot plate) after NT ([1]; PNA microinjected into PAG (printed 5% g), NT 18 nmol 24 hours later): 14 % MPE | body temperature change in response to NT ([2]; 10 mg/kg intraperitoneally): −0.45±0.15 °C | body temperature change in response to NT ([2]; PNA into PAG, 5 μg): −0.5 °C | reduction in the NTR1/GAPDH ratio of mRNA (NTR1 mRNA): 50% | change in MU1R/GAPDH ratio of mRNA (MU1R mRNA): no change

SERT-PNA: 12-mer antisense PNA oligomer to rat plasma membrane serotonin transporter, 5′-GCCAGATGTTGC-3′ (SEQ ID NO: 3) (all peptide nucleic acid (PNA); further chemistry not fully specified)
hyperactivity after TCP [3]: extreme hyperactivity | time to extreme hyperactivity after TCP treatment [3]: ≤ 10 min
